The record followed here is patent US10294212B2 (CURADEV PHARMA PRIVATE LTD., priority 2013, dated 2019).

Structures are written as SMILES.

For test [1], the target named is Human indoleamine 2,3-dioxygenase1 (hIDO1) (Homo sapiens (Human), UniProt P14902). The test is described as follows: In-vitro IDO1 enzyme assay (conversion of L-tryptophan to KYN). It counts as biochemical. Particulars: read-out: IC50 (IDO1) Enz. In short, it runs like this:
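Kynurenine formation quantified by HPLC absorbance at 360 nm or LC/MS/MS after TCA quench and 15 min at 65 °C. Reaction: 10 nM N-His hIDO1, 30 μM tryptophan, ascorbate/methylene blue/catalase, pH 6.5 phosphate buffer, 37 °C for 30 min. Inhibition relative to 1% DMSO vehicle, fitted to IC50.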

The target in a further test is IDO1 in HeLa cells (Homo sapiens (Human), UniProt P14902). Briefly: HeLa cell based IDO1 assay (IFNγ-induced, KYN in supernatant). In short, it runs like this:
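Kynurenine in the supernatant, quantified by C-18 HPLC with 360 nm absorbance after TCA hydrolysis (65 °C, 15 min), was the read-out. Compounds (typically 10 μM to 1 nM) were added in HBSS containing 80 μM tryptophan to HeLa cells pre-induced overnight with 50 ng/mL IFNγ. IC50 came from nonlinear fits of % inhibition versus 1% DMSO vehicle.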

In test [2] the target is Human TDO (hTDO)-transfected CHO-K1 cells (Homo sapiens (Human), UniProt P48775). Briefly: CHO-K1 cell based TDO assay. Particulars: hTDO cellular assay. In short, it runs like this: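 Kynurenine output was read by LC/MS/MS after TCA precipitation and 15 min at 65° C. Before that, CHO-K1 cells stably carrying human TDO2 were incubated 2 h with compounds (typically 31 μM to 10 nM) and 80 μM L-tryptophan in HBSS. Decrease versus DMSO vehicle gave percent inhibition, then IC50.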

The next test has as its system CT-26 tumor cells. The test is described as follows: Antitumor activity in syngeneic CT26/Balb/C tumor model. Particulars: 60 mg/kg oral BID, vs control animals. It counts as in vivo, Balb/c mice. As to the method: Tumor volume reduction by the test compounds was evaluated in a syngeneic CT26/Balb/C tumor model as described below. Balb/c mice were purchased from Vivo Bio Tech, Hyderabad, India, and housed in sterile conditions using an individually ventilated caging system manufactured by Citizen Industries Limited, Ahmedabad, India. Mice were quarantined for at least 7 days before experimentation.
Mouse colorectal tumor forming cells, CT-26 cells (ATCC, USA), were cultured in DMEM and 10% FBS medium supplemented with lx non-essential amino acid (HiMedia) in an incubator maintained at 37QC with 95% humidity and 5% CO2. One million (1×10^6) live syngeneic CT-26 cells suspended in 0.2 ml of […] were injected subcutaneously in the right flank of each Balb/c mouse (age 6-8 weeks, weight: about 18-20 g) on day 1 under anesthesia. Eight to ten mice were used per experimental group. Subcutaneous cells formed localized tumors. Animals were visually inspected twice a day. Tumor measurements were initiated 7 days post injection using Vernier calipers. Tumor sizes at day 7 ranged typically from 80-150 mm^3. Tumor dimensions were subsequently measured every 3 to 4 days and tumor volume was determined. Assuming tumors to be ellipsoid, tumor volume was calculated using the formula: V=(D×d×d)/2
Where D is longest diameter in mm, and d is shortest diameter in mm.
When the average tumor volume in the mice reached 100-120 mm^3, tumor bearing mice were randomized for treatment with either test compound or vehicle alone. Test compounds were formulated generally in normal saline comprising Polyethylene Glycol (PEG400), Propylene glycol (PG) and Dimethyl Acetamide (DACM) at pH 4.5-5.0 and dosed orally at ranges 40-75 mg/kg (dose volume—5 mL/kg) twice a day. Solutions of the compounds were prepared immediately before dosing the animals. In general, tumor volume was measured at various times post-dosing from day 1 to day 34.
A non-limiting example is provided. Tumor bearing mice were dosed orally twice a day at 40 mg/kg body weight with either vehicle control or test compound 2 formulated in 30% Polyethylene Glycol (PEG-400), 20% Propylene glycol (PG) in normal saline. Tumors were measured and tumor volumes were determined at 1, 4, 6, 9, 11, and 14 days after the first dose as described above. Animals were sacrificed on day 14. Tumor and blood samples were harvested for further analysis. Just prior to animal sacrifice, blood was drawn retro-orbitally into a tube containing 0.2% EDTA for plasma collection. The harvested tumors were weighed and snap frozen in liquid nitrogen immediately. Plasma KYN concentrations are measured for pharmacokinetic analysis using LC/MS/MS using an API4000 mass spectrometer (Applied Biosystems) coupled to a Shimadzu Prominence LC system fitted with a C18 column.

Sequence of IDO1 in HeLa cells (P14902 whole entry): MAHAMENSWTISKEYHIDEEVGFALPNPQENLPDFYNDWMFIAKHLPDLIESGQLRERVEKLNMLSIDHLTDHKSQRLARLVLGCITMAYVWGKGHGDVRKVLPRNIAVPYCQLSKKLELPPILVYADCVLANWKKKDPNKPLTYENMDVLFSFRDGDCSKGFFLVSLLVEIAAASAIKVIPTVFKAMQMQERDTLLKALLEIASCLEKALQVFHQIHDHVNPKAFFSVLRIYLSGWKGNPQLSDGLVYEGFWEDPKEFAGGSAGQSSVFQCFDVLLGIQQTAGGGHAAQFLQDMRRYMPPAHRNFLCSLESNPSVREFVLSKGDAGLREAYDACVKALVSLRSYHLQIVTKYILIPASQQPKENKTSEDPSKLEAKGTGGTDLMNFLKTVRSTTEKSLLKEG
Sequence of Human indoleamine 2,3-dioxygenase1 (hIDO1) (P14902 whole entry): as above
Sequence of Human TDO (hTDO)-transfected CHO-K1 cells (P48775 whole entry): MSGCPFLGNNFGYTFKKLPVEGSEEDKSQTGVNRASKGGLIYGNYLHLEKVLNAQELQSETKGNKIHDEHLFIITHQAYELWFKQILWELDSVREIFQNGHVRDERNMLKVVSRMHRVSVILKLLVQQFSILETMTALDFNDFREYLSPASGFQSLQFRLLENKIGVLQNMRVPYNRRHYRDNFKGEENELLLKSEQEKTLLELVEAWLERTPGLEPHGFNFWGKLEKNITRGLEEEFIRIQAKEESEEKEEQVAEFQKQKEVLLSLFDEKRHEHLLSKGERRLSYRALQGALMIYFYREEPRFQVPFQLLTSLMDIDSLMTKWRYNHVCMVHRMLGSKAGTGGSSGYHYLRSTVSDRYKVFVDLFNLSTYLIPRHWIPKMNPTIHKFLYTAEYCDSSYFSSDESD

On to `Nc1oc2c(Cl)nccc2c1Nc1ccc(F)c(Cl)c1` [Compound 166, 7-Chloro-N3-(3-chloro-4-fluorophenyl)furo[2,3-c]pyridine-2,3-diamine], for which the IC50 in test [1] is less than 0.2 µM; against IDO1 in HeLa cells, less than 0.2 µM; in test [2], less than 0.5 µM. The “reduction of tumor growth” value in the test with CT-26 tumor cells was 26%-38.
Turning to `Nc1oc2c(-c3ccc4c(c3)OCO4)nccc2c1Nc1ccc(F)c(Cl)c1` [Compound 261, 7-(Benzo[d][1,3]dioxol-5-yl)-N^3-(3-chloro-4-fluorophenyl)furo[2,3-c]pyridine-2,3-diamine], the IC50 in test [1] was less than 0.2 µM; at IDO1 in HeLa cells, less than 0.2 µM; in test [2], 0.5 to 2 µM.
For the compound `CCc1cc(-c2nccc3c(Nc4ccc(F)c(Cl)c4)c(N)oc23)ccn1` [Compound 262, N^3-(3-Chloro-4-fluorophenyl)-7-(2-ethylpyridin-4-yl)furo[2,3-c]pyridine-2,3-diamine], the IC50 was less than 0.2 µM in test [1], less than 0.2 µM on IDO1 in HeLa cells and 0.5 to 2 µM in test [2].
Regarding `Cc1cc(-c2nccc3c(Nc4cc(Cl)ccc4F)c(N)oc23)ccn1` [Compound 263, N^3-(5-Chloro-2-fluorophenyl)-7-(2-methylpyridin-4-yl)furo[2,3-c]pyridine-2,3-diamine], the 50% inhibitory concentration (IC50) in test [1] was less than 0.2 µM; at IDO1 in HeLa cells it was less than 0.2 µM; in test [2], more than 2 µM.
Turning to `Cc1cc(-c2nccc3c(Nc4cccc(Cl)c4F)c(N)oc23)ccn1` [Compound 264, N^3-(3-Chloro-2-fluorophenyl)-7-(2-methylpyridin-4-yl)furo[2,3-c]pyridine-2,3-diamine], the values for the half-maximal inhibitory concentration (IC50) (in test [1]; at IDO1 in HeLa cells; in test [2]) were 0.2 to 1 µM, less than 0.2 µM and more than 2 µM, respectively.
As to `Cc1cc(-c2nc(C)cc3c(Nc4ccc(F)c(Cl)c4)c(N)oc23)ccn1` [Compound 267, N^3-(3-Chloro-4-fluorophenyl)-5-methyl-7-(2-methylpyridin-4-yl)furo[2,3-c]pyridine-2,3-diamine], the results for the IC50 (in test [1]; against IDO1 in HeLa cells; in test [2]) were less than 0.2 µM, less than 0.2 µM and more than 2 µM, respectively.
For the compound `Nc1oc2c(-c3ccnc(C(F)(F)F)c3)nccc2c1Nc1ccc(F)c(Cl)c1` [Compound 268, N^3-(3-Chloro-4-fluorophenyl)-7-(2-(trifluoromethyl)pyridin-4-yl)furo[2,3-c]pyridine-2,3-diamine], the results for the IC50 (in test [1]; on IDO1 in HeLa cells; in test [2]) were less than 0.2 µM, less than 0.2 µM and more than 2 µM, respectively.
In the case of `CCOC(=O)Nc1oc2c(-c3ccnc(C)c3)nccc2c1N(C(=O)OCC)c1ccc(F)c(Cl)c1` [Compound 269, Ethyl (3-chloro-4-fluorophenyl)(2-((ethoxycarbonyl)amino)-7-(2-methylpyridin-4-yl)furo[2,3-c]pyridin-3-yl)carbamate], the IC50 in test [1] is more than 1 µM; against IDO1 in HeLa cells, more than 1 µM; in test [2] it was more than 2 µM.
In the case of `Nc1oc2c(-c3ccnc(C(=O)N4CCCCC4)c3)nccc2c1Nc1ccc(F)c(Cl)c1` [Compound 271, (4-(2-Amino-3-((3-chloro-4-fluorophenyl)amino)furo[2,3-c]pyridin-7-yl)pyridin-2-yl)(piperidin-1-yl)methanone], the IC50 in test [1] was less than 0.2 µM; against IDO1 in HeLa cells, less than 0.2 µM; in test [2], 0.5 to 2 µM.
Consider `Nc1oc2c(-c3ccnc(C(=O)N4CCOCC4)c3)nccc2c1Nc1ccc(F)c(Cl)c1` [Compound 272, (4-(2-Amino-3-((3-chloro-4-fluorophenyl)amino)furo[2,3-c]pyridin-7-yl)pyridin-2-yl)(morpholino)methanone], for which the half-inhibitory concentration (IC50) in test [1] was less than 0.2 µM; at IDO1 in HeLa cells, less than 0.2 µM; in test [2], 0.5 to 2 µM.
Take `Nc1oc2c(-c3ccnc(C(=O)Nc4ccccn4)c3)nccc2c1Nc1ccc(F)c(Cl)c1` [Compound 273, 4-(2-Amino-3-((3-chloro-4-fluorophenyl)amino)furo[2,3-c]pyridin-7-yl)-N-(pyridin-2-yl)picolinamide]: the IC50 was less than 0.2 µM in test [1], less than 0.2 µM against IDO1 in HeLa cells and more than 2 µM in test [2].
On to `Nc1oc2c(-c3ccnc(C(=O)NCCN4CCOCC4)c3)nccc2c1Nc1ccc(F)c(Cl)c1` [Compound 274, 4-(2-Amino-3-((3-chloro-4-fluorophenyl)amino)furo[2,3-c]pyridin-7-yl)-N-(2-morpholinoethyl)picolinamide], for which the results for the concentration for half-maximal inhibition (IC50) (in test [1]; at IDO1 in HeLa cells; in test [2]) were less than 0.2 µM, less than 0.2 µM and 0.5 to 2 µM, respectively.
On to `CCCCCNC(=O)c1cc(-c2nccc3c(Nc4ccc(F)c(Cl)c4)c(N)oc23)ccn1` [Compound 275, 4-(2-Amino-3-((3-chloro-4-fluorophenyl)amino)furo[2,3-c]pyridin-7-yl)-N-pentylpicolinamide], for which the IC50 in test [1] is less than 0.2 µM; at IDO1 in HeLa cells, 0.2 to 1 µM; in test [2], more than 2 µM.
In the same order, the values of `Nc1oc2c(-c3cc(F)ccc3Cl)nccc2c1Nc1ccc(F)c(Cl)c1` [Compound 276, N^3-(3-Chloro-4-fluorophenyl)-7-(2-chloro-5-fluorophenyl)furo[2,3-c]pyridine-2,3-diamine] are less than 0.2 µM, less than 0.2 µM and 0.5 to 2 µM.
As for `Cc1cc(C)cc(-c2nccc3c(Nc4ccc(F)c(Cl)c4)c(N)oc23)c1` [Compound 277, N^3-(3-Chloro-4-fluorophenyl)-7-(3,5-dimethylphenyl)furo[2,3-c]pyridine-2,3-diamine], the results for the IC50 (in test [1]; at IDO1 in HeLa cells; in test [2]) were less than 0.2 µM, less than 0.2 µM and 0.5 to 2 µM, respectively.
Take `Nc1oc2c(-c3cc(F)cc(F)c3)nccc2c1Nc1ccc(F)c(Cl)c1` [Compound 278, N^3-(3-Chloro-4-fluorophenyl)-7-(3,5-difluorophenyl)furo[2,3-c]pyridine-2,3-diamine]: the IC50 in test [1] is less than 0.2 µM; against IDO1 in HeLa cells it was less than 0.2 µM; in test [2] it was 0.5 to 2 µM.
Regarding `CCOC(=O)Nc1oc2c(-c3ccnc(C)c3)nccc2c1N(C(=O)OCC)c1ccc(F)c(F)c1` [Compound 279, Ethyl (3,4-difluorophenyl)(2-((ethoxycarbonyl)amino)-7-(2-methylpyridin-4-yl)furo[2,3-c]pyridin-3-yl)carbamate], the IC50 in test [1] was more than 1 µM; against IDO1 in HeLa cells, more than 1 µM; in test [2], more than 2 µM.
For the compound `Nc1oc2c(/C=C/c3ccccc3)nccc2c1Nc1ccc(F)c(Cl)c1` [Compound 280, N^3-(3-Chloro-4-fluorophenyl)-7-styrylfuro[2,3-c]pyridine-2,3-diamine], the half-maximal inhibitory concentration (IC50) in test [1] is less than 0.2 µM; at IDO1 in HeLa cells it was less than 0.2 µM; in test [2], 0.5 to 2 µM.
